Experimental data as given in publication PMC9983021, “Novel GluN2B-Selective NMDA Receptor Negative Allosteric Modulator Possesses Intrinsic Analgesic Properties and Enhances Analgesia of Morphine in a Rodent Tail Flick Pain Model” (ACS Chemical Neuroscience, 2023).

Key:
Sigma2 = target: T1, Sigma2 (Homo sapiens, UniProt Q5BJF2); test: Radioligand binding assay (NIMH PDSP); settings: primary screen, quadruplicate
T1 construct: purchased NIMH Psychoactive Drug Screening Program (PDSP)
Method: (§1) Conventional competition and saturation radioligand binding assays were used to determine the affinities of reference standards and EU93-108. Experiments were carried out by the NIMH Psychoactive Drug Screening Program (PDSP) and were performed as previously described.[123]
(§2) The detailed experimental protocols for the radioligand assays are available on the NIMH PDSP website at https://pdsp.unc.edu/pdspweb/content/UNC-CH%20Protocol%20Book.pdf.
(§3) Receptor Mean % Receptor Mean % Receptor Mean %
(§4) Inhibition Inhibition Inhibition
(§5) Supplemental Table S4. Off-Target Actions of EU93-108: Primary GPCR Screen. Cloned human molecular targets were individually expressed and submitted to molecular target-based screening with initial screens performed at a final concentration of 10 µM in quadruplicate. Complete protocols for the assays have been previously published (Besnard J et al. 2012). Where inhibition greater than 50% was measured, secondary screens were performed wherein Ki values were calculated (see Table 4).

SERT = target: T2, SERT (Homo sapiens, UniProt P31645); test: Radioligand binding assay (NIMH PDSP); settings: primary screen, quadruplicate
T2 construct: purchased NIMH Psychoactive Drug Screening Program (PDSP)
Method: as §1, §2, §3, §4, §5

D5 = target: T3, D5 (Homo sapiens, UniProt P21918); test: Radioligand binding assay (NIMH PDSP); settings: primary screen, quadruplicate
T3 construct: purchased NIMH Psychoactive Drug Screening Program (PDSP)
Method: as §1, §2, §3, §4, §5

M2 = target: T4, M2 (Homo sapiens, UniProt P08172); test: Radioligand binding assay (NIMH PDSP); settings: primary screen, quadruplicate
T4 construct: purchased NIMH Psychoactive Drug Screening Program (PDSP)
Method: as §1, §2, §3, §4, §5

DOR = target: T5, DOR (Homo sapiens, UniProt P41143); test: Radioligand binding assay (NIMH PDSP); settings: primary screen, quadruplicate
T5 construct: purchased NIMH Psychoactive Drug Screening Program (PDSP)
Method: as §1, §2, §3, §4, §5

H3 = target: T6, H3 (Homo sapiens, UniProt Q9Y5N1); test: Radioligand binding assay (NIMH PDSP); settings: primary screen, quadruplicate
T6 construct: purchased NIMH Psychoactive Drug Screening Program (PDSP)
Method: as §1, §2, §3, §4, §5

H2 = target: T7, H2 (Homo sapiens, UniProt P25021); test: Radioligand binding assay (NIMH PDSP); settings: primary screen, quadruplicate
T7 construct: purchased NIMH Psychoactive Drug Screening Program (PDSP)
Method: as §1, §2, §3, §4, §5

D4 = target: T8, D4 (Homo sapiens, UniProt P21917); test: Radioligand binding assay (NIMH PDSP); settings: primary screen, quadruplicate
T8 construct: purchased NIMH Psychoactive Drug Screening Program (PDSP)
Method: as §1, §2, §3, §4, §5

M4 = target: T9, M4 (Homo sapiens, UniProt P08173); test: Radioligand binding assay (NIMH PDSP); settings: primary screen, quadruplicate
T9 construct: purchased NIMH Psychoactive Drug Screening Program (PDSP)
Method: as §1, §2, §3, §4, §5

H4 = target: T10, H4 (Homo sapiens, UniProt Q9H3N8); test: Radioligand binding assay (NIMH PDSP); settings: primary screen, quadruplicate
T10 construct: purchased NIMH Psychoactive Drug Screening Program (PDSP)
Method: as §1, §2, §3, §4, §5

Beta2 = target: T11, Beta2 (Homo sapiens, UniProt P07550); test: Radioligand binding assay (NIMH PDSP); settings: primary screen, quadruplicate
T11 construct: purchased NIMH Psychoactive Drug Screening Program (PDSP)
Method: as §1, §2, §3, §4, §5

5-HT7A = target: T12, 5-HT7A (Homo sapiens, UniProt P34969); test: Radioligand binding assay (NIMH PDSP); settings: primary screen, quadruplicate
T12 construct: purchased NIMH Psychoactive Drug Screening Program (PDSP)
Method: as §1, §2, §3, §4, §5

DAT = target: T13, DAT (Homo sapiens, UniProt Q01959); test: Radioligand binding assay (NIMH PDSP); settings: primary screen, quadruplicate
T13 construct: purchased NIMH Psychoactive Drug Screening Program (PDSP)
Method: as §1, §2, §3, §4, §5

D1 = target: T14, D1 (Homo sapiens, UniProt P21728); test: Radioligand binding assay (NIMH PDSP); settings: primary screen, quadruplicate
T14 construct: purchased NIMH Psychoactive Drug Screening Program (PDSP)
Method: as §1, §2, §3, §4, §5

M1 = target: T15, M1 (Homo sapiens, UniProt P11229); test: Radioligand binding assay (NIMH PDSP); settings: primary screen, quadruplicate
T15 construct: purchased NIMH Psychoactive Drug Screening Program (PDSP)
Method: as §1, §2, §3, §4, §5

5-HT5A = target: T16, 5-HT5A (Homo sapiens, UniProt P47898); test: Radioligand binding assay (NIMH PDSP); settings: primary screen, quadruplicate
T16 construct: purchased NIMH Psychoactive Drug Screening Program (PDSP)
Method: as §1, §2, §3, §4, §5

5-HT3 = target: T17, 5-HT3 (Homo sapiens, UniProt P46098); test: Radioligand binding assay (NIMH PDSP); settings: primary screen, quadruplicate
T17 construct: purchased NIMH Psychoactive Drug Screening Program (PDSP)
Method: as §1, §2, §3, §4, §5

Beta3 = target: T18, Beta3 (Homo sapiens, UniProt P13945); test: Radioligand binding assay (NIMH PDSP); settings: primary screen, quadruplicate
T18 construct: purchased NIMH Psychoactive Drug Screening Program (PDSP)
Method: as §1, §2, §3, §4, §5

5-HT1D = target: T19, 5-HT1D (Homo sapiens, UniProt P28221); test: Radioligand binding assay (NIMH PDSP); settings: primary screen, quadruplicate
T19 construct: purchased NIMH Psychoactive Drug Screening Program (PDSP)
Method: as §1, §2, §3, §4, §5

D2 = target: T20, D2 (Homo sapiens, UniProt P14416); test: Radioligand binding assay (NIMH PDSP); settings: primary screen, quadruplicate
T20 construct: purchased NIMH Psychoactive Drug Screening Program (PDSP)
Method: as §1, §2, §3, §4, §5

MOR = target: T21, MOR (Homo sapiens, UniProt P35372); test: Radioligand binding assay (NIMH PDSP); settings: primary screen, quadruplicate
T21 construct: purchased NIMH Psychoactive Drug Screening Program (PDSP)
Method: as §1, §2, §3, §4, §5

Beta1 = target: T22, Beta1 (Homo sapiens, UniProt P08588); test: Radioligand binding assay (NIMH PDSP); settings: primary screen, quadruplicate
T22 construct: purchased NIMH Psychoactive Drug Screening Program (PDSP)
Method: as §1, §2, §3, §4, §5

5-HT1B = target: T23, 5-HT1B (Homo sapiens, UniProt P28222); test: Radioligand binding assay (NIMH PDSP); settings: primary screen, quadruplicate
T23 construct: purchased NIMH Psychoactive Drug Screening Program (PDSP)
Method: as §1, §2, §3, §4, §5

M5 = target: T24, M5 (Homo sapiens, UniProt P08912); test: Radioligand binding assay (NIMH PDSP); settings: primary screen, quadruplicate
T24 construct: purchased NIMH Psychoactive Drug Screening Program (PDSP)
Method: as §1, §2, §3, §4, §5

BZP Rat Brain Site = test: Radioligand binding assay (NIMH PDSP); settings: primary screen, 10 µM, quadruplicate
Method: as §1, §2, §3, §4, §5

KOR = target: T25, KOR (Homo sapiens, UniProt P41145); test: Radioligand binding assay (NIMH PDSP); settings: primary screen, quadruplicate
T25 construct: purchased NIMH Psychoactive Drug Screening Program (PDSP)
Method: as §1, §2, §3, §4, §5

Alpha1B = target: T26, Alpha1B (Homo sapiens, UniProt P35368); test: Radioligand binding assay (NIMH PDSP); settings: primary screen, quadruplicate
T26 construct: purchased NIMH Psychoactive Drug Screening Program (PDSP)
Method: as §1, §2, §3, §4, §5

5-HT1A = target: T27, 5-HT1A (Homo sapiens, UniProt P08908); test: Radioligand binding assay (NIMH PDSP); settings: primary screen, quadruplicate
T27 construct: purchased NIMH Psychoactive Drug Screening Program (PDSP)
Method: as §1, §2, §3, §4, §5

NET = target: T28, NET (Homo sapiens, UniProt P23975); test: Radioligand binding assay (NIMH PDSP); settings: primary screen, quadruplicate
T28 construct: purchased NIMH Psychoactive Drug Screening Program (PDSP)
Method: as §1, §2, §3, §4, §5

5-HT6 = target: T29, 5-HT6 (Homo sapiens, UniProt P50406); test: Radioligand binding assay (NIMH PDSP); settings: primary screen, quadruplicate
T29 construct: purchased NIMH Psychoactive Drug Screening Program (PDSP)
Method: as §1, §2, §3, §4, §5

5-HT1E = target: T30, 5-HT1E (Homo sapiens, UniProt P28566); test: Radioligand binding assay (NIMH PDSP); settings: primary screen, quadruplicate
T30 construct: purchased NIMH Psychoactive Drug Screening Program (PDSP)
Method: as §1, §2, §3, §4, §5

M3 = target: T31, M3 (Homo sapiens, UniProt P20309); test: Radioligand binding assay (NIMH PDSP); settings: primary screen, quadruplicate
T31 construct: purchased NIMH Psychoactive Drug Screening Program (PDSP)
Method: as §1, §2, §3, §4, §5

GluN1/GluN2B = GluN1/GluN2B (Rattus norvegicus, UniProt P35439+Q00960)
GluN1/GluN2C = GluN1/GluN2C (Rattus norvegicus, UniProt P35439+Q00961)
[1] = agonist 100 µM glutamate, 30 µM glycine, mean ± SEM
[2] = read-out: Mean % Inhibition by 10 μM EU93-108

GluN1/GluN2B, sequence (Q00960 27-1482, other chains not shown): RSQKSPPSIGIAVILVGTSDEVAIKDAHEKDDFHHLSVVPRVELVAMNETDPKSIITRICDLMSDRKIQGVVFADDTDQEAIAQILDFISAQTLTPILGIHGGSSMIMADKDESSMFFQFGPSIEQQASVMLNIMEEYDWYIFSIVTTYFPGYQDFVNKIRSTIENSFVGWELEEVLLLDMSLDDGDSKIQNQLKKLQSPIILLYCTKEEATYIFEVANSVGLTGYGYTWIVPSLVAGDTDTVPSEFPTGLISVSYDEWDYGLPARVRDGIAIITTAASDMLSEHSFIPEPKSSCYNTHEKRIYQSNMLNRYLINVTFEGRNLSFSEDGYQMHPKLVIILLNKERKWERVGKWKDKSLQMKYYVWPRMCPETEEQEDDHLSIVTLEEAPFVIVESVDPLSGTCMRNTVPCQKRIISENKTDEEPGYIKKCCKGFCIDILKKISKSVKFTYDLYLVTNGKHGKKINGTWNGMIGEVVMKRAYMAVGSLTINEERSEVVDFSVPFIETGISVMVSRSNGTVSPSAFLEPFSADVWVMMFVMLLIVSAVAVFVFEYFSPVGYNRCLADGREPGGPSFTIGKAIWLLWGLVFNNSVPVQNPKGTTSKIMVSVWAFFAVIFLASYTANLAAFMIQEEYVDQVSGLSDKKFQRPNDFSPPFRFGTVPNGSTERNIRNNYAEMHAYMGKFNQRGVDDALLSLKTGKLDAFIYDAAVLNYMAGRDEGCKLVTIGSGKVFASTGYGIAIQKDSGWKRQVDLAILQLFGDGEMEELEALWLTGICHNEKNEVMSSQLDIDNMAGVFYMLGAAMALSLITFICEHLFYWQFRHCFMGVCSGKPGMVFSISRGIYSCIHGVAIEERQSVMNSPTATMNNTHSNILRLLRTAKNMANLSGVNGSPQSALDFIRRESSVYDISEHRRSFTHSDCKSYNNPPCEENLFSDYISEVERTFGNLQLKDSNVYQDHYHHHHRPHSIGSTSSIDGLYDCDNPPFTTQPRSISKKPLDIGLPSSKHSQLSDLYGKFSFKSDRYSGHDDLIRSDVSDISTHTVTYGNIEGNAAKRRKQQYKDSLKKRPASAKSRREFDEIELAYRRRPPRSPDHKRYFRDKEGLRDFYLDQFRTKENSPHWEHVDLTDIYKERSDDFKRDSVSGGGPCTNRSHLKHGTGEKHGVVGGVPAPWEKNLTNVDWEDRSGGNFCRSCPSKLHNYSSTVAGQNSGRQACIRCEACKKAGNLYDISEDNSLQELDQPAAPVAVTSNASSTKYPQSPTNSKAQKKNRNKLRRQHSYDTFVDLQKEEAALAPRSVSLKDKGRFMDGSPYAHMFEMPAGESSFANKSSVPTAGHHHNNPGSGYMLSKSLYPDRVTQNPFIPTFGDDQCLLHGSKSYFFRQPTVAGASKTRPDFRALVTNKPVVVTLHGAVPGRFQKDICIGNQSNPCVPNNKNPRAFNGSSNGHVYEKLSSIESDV
GluN1/GluN2C, sequence (Q00961 20-1237, other chains not shown): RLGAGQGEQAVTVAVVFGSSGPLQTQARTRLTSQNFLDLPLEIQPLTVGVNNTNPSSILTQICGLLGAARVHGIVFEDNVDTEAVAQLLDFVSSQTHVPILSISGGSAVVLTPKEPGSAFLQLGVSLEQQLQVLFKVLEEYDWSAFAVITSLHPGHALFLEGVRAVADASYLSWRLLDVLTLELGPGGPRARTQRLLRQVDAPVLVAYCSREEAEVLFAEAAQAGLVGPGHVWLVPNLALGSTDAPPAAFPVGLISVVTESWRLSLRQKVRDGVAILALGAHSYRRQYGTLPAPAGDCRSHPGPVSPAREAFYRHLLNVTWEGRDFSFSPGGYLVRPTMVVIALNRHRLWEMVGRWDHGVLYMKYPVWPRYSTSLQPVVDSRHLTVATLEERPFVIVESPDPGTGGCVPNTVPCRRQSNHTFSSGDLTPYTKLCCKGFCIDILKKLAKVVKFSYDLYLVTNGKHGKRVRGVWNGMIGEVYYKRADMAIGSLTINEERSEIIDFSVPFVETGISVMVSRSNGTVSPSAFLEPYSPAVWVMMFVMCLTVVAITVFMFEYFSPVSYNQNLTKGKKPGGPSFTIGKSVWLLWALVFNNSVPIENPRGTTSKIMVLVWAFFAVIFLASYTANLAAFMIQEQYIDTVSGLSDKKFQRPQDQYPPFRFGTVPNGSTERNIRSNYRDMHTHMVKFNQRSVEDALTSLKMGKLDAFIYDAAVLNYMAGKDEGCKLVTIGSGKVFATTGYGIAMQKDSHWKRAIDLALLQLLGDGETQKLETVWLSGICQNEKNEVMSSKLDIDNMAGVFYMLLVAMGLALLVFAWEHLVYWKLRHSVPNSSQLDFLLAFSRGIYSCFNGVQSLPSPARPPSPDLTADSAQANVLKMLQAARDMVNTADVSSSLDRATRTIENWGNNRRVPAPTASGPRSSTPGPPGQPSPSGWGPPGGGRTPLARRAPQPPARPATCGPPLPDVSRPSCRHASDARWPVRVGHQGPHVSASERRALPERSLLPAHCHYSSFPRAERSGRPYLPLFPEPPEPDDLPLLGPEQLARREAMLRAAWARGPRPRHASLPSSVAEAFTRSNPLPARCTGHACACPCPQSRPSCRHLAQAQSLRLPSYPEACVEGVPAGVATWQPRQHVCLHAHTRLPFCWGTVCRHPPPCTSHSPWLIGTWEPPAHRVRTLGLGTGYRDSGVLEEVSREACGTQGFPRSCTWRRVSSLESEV
T10 sequence (Q9H3N8 whole entry): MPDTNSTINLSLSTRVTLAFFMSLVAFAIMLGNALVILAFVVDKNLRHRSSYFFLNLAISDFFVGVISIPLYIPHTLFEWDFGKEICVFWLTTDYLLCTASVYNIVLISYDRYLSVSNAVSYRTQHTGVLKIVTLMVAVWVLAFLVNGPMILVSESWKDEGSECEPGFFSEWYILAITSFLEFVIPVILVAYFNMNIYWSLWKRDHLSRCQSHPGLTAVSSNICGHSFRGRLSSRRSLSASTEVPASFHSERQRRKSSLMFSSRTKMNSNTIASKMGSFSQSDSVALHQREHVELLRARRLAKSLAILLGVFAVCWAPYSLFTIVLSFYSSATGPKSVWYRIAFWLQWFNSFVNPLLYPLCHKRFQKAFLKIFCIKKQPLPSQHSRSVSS
T2 sequence (P31645 whole entry): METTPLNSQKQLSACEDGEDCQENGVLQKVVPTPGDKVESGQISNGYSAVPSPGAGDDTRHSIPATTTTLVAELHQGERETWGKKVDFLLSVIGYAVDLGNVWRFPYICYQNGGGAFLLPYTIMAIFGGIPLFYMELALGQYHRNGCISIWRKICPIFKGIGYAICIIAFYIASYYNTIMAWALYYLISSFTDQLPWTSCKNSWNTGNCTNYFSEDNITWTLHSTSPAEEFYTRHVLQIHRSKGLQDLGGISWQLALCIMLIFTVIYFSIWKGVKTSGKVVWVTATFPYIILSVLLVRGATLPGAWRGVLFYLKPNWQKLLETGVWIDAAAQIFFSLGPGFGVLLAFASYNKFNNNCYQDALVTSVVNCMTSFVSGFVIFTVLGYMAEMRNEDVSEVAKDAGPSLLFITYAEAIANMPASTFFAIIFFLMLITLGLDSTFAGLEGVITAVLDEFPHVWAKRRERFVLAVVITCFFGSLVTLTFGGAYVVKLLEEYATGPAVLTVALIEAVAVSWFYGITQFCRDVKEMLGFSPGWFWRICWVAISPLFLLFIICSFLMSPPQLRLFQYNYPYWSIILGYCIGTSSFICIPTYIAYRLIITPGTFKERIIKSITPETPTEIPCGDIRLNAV
T25 sequence (P41145 whole entry): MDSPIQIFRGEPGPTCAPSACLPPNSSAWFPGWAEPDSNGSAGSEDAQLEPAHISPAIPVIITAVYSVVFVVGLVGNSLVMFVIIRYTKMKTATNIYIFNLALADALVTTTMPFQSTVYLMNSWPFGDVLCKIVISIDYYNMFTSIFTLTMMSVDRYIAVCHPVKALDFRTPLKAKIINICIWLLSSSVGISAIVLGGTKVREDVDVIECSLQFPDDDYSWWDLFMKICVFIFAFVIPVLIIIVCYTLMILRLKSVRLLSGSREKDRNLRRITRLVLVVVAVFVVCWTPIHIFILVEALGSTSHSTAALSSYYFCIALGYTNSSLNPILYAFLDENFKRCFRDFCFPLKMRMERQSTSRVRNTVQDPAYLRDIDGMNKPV
T15 sequence (P11229 whole entry): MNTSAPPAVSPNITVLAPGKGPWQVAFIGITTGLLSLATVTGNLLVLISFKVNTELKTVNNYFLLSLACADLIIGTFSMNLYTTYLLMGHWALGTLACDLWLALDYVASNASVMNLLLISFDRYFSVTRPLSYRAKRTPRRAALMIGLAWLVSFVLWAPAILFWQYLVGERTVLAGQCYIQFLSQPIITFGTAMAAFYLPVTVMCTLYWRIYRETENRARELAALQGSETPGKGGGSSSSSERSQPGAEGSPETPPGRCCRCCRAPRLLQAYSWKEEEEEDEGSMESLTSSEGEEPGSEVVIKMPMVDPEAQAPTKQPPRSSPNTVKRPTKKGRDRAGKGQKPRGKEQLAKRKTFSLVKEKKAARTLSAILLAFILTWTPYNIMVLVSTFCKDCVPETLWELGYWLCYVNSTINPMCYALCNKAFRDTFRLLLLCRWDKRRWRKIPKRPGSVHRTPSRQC
T26 sequence (P35368 whole entry): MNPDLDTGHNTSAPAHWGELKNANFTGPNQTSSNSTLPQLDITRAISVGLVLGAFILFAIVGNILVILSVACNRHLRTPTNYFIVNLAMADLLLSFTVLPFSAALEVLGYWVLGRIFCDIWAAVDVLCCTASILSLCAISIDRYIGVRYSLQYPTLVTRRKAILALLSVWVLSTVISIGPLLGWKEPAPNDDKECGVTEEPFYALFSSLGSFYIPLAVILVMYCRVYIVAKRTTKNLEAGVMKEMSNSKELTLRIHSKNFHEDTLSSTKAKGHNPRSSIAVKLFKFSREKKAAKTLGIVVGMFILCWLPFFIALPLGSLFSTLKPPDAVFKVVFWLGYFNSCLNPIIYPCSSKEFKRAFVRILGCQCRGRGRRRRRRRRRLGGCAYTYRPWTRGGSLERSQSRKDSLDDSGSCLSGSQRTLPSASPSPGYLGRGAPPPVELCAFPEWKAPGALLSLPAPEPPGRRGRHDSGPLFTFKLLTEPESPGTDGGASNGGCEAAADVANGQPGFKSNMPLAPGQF

CS(=O)(=O)Nc1ccc(OC[C@@H](O)CN2CCN(c3ccc(F)c(F)c3)CC2)cc1 [EU93-108, (S)-N-(4-(3-(4-(3,4-Difluorophenyl)piperazin-1-yl)-2-hydroxypropoxy)phenyl)methanesulfonamide]
inhibition at 10 µM (Sigma2): 47.2% | inhibition at 10 µM (SERT): 15.1% | inhibition at 10 µM (D5): 8.94% | inhibition at 10 µM (M2): -23.1% | inhibition at 10 µM (DOR): -8.82% | inhibition at 10 µM (H3): 22.7% | inhibition at 10 µM (H2): 13.7% | inhibition at 10 µM (D4): 11.4% | inhibition at 10 µM (M4): 51.4% | inhibition at 10 µM (H4): 2.12% | inhibition at 10 µM (Beta2): 13.7% | inhibition at 10 µM (5-HT7A): 55.9% | inhibition at 10 µM (DAT): -7.01% | inhibition at 10 µM (D1): 24.7% | inhibition at 10 µM (M1): -18.1% | inhibition at 10 µM (5-HT5A): 13% | inhibition at 10 µM (5-HT3): 0.87% | inhibition at 10 µM (Beta3): -10.5% | inhibition at 10 µM (5-HT1D): 39.2% | inhibition at 10 µM (D2): 23.1% | inhibition at 10 µM (MOR): 4.04% | inhibition at 10 µM (Beta1): 29.1% | inhibition at 10 µM (5-HT1B): -7.29% | inhibition at 10 µM (M5): -0.11% | Mean % Inhibition (BZP Rat Brain Site): 14.68% | inhibition at 10 µM (KOR): -3.1% | inhibition at 10 µM (Alpha1B): 5.09% | inhibition at 10 µM (5-HT1A): 22.8% | inhibition at 10 µM (NET): 12.5% | inhibition at 10 µM (5-HT6): 25.3% | inhibition at 10 µM (5-HT1E): 1.68% | inhibition at 10 µM (M3): 9.26% | % Control 10 µM EU93-108 (GluN1/GluN2B; [1]): 13.2 ± 6.1% | inhibition of GluN2B relative to the other NMDAR subunits (GluN1/GluN2B; at 10 μM): approximately 18 fold | inhibition at 10 µM (GluN1/GluN2B; [2]): 86.8 ± 6.1% | % Control 10 µM EU93-108 (GluN1/GluN2C; [1]): 97 ± 2.8% | inhibition at 10 µM (GluN1/GluN2C; [2]): 5.3 ± 2.2%
